Reference: PubChem BioAssay (NCI)
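How tested: cells in 96-well plates exposed to compound for 48 hours at five concentrations. TGI is the concentration that stops growth completely.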

Tests used:
Test in all cases: NCI-60 cell line screen, 48 h
786-0 renal = system: 786-0 renal
A498 renal = system: A498 renal
A549 NSCLC = system: A549 NSCLC
ACHN renal = system: ACHN renal
BT-549 breast = system: BT-549 breast
CAKI-1 renal = system: CAKI-1 renal
CCRF-CEM leukemia = system: CCRF-CEM leukemia
COLO 205 colon = system: COLO 205 colon
DU-145 prostate = system: DU-145 prostate
EKVX NSCLC = system: EKVX NSCLC
HCC-2998 colon = system: HCC-2998 colon
HCT-116 colon = system: HCT-116 colon
HCT-15 colon = system: HCT-15 colon
HOP-62 NSCLC = system: HOP-62 NSCLC
HOP-92 NSCLC = system: HOP-92 NSCLC
HS 578T breast = system: HS 578T breast
K-562 leukemia = system: K-562 leukemia
KM12 colon = system: KM12 colon
LOX IMVI melanoma = system: LOX IMVI melanoma
M14 melanoma = system: M14 melanoma
MALME-3M melanoma = system: MALME-3M melanoma
MCF7 breast = system: MCF7 breast
MDA-MB-231 breast = system: MDA-MB-231 breast
MDA-MB-435 = system: MDA-MB-435
MDA-N = system: MDA-N
MOLT-4 leukemia = system: MOLT-4 leukemia
NCI-H226 lung = system: NCI-H226 lung
NCI-H23 lung = system: NCI-H23 lung
NCI-H460 lung = system: NCI-H460 lung
NCI-H522 lung = system: NCI-H522 lung
NCI/ADR-RES ovarian = system: NCI/ADR-RES ovarian
OVCAR-3 ovarian = system: OVCAR-3 ovarian
OVCAR-4 ovarian = system: OVCAR-4 ovarian
OVCAR-5 ovarian = system: OVCAR-5 ovarian
OVCAR-8 ovarian = system: OVCAR-8 ovarian
PC-3 prostate = system: PC-3 prostate
RPMI-8226 leukemia = system: RPMI-8226 leukemia
RXF 393 renal = system: RXF 393 renal
SF-268 CNS = system: SF-268 CNS
SF-295 CNS = system: SF-295 CNS
SF-539 CNS = system: SF-539 CNS
SK-MEL-2 melanoma = system: SK-MEL-2 melanoma
SK-MEL-28 melanoma = system: SK-MEL-28 melanoma
SK-MEL-5 melanoma = system: SK-MEL-5 melanoma
SK-OV-3 ovarian = system: SK-OV-3 ovarian
SN12C renal = system: SN12C renal
SNB-19 CNS = system: SNB-19 CNS
SNB-75 CNS = system: SNB-75 CNS
SR leukemia = system: SR leukemia
SW-620 colon = system: SW-620 colon
T-47D breast = system: T-47D breast
TK-10 renal = system: TK-10 renal
U251 CNS = system: U251 CNS
UACC-257 melanoma = system: UACC-257 melanoma
UACC-62 melanoma = system: UACC-62 melanoma
UO-31 renal = system: UO-31 renal
HL-60(TB) leukemia = system: HL-60(TB) leukemia
HT29 colon = system: HT29 colon
IGROV1 ovarian = system: IGROV1 ovarian

## CC1OC(OC2C(O)COC(OC3C(C)OC(OC4C(OC(=O)[C@]56CCC(C)(C)C[C@@H]5C5=CCC7[C@@]8(C)C[C@H](O)[C@H](OC9OC(CO)C(O)C(O)C9O)[C@@](C)(CO)[C@@H]8CC[C@@]7(C)[C@]5(C)CC6)OCC(O)C4O)C(O)C3OC3OCC(O)C(O)C3O)C2O)C(O)C(O)C1O (stereo partly specified)
786-0 renal
  TGI: 29.2 µM
A498 renal
  TGI: 32.7 µM
A549 NSCLC
  TGI: 28.2 µM
ACHN renal
  TGI: 36.1 µM
BT-549 breast
  TGI: 52.6 µM
CAKI-1 renal
  TGI: 26.8 µM
CCRF-CEM leukemia
  TGI: 34.9 µM
COLO 205 colon
  TGI: 19.3 µM
DU-145 prostate
  TGI: 36.2 µM
EKVX NSCLC
  TGI: 23.8 µM
HCC-2998 colon
  TGI: 33.9 µM
HCT-116 colon
  TGI: 38.5 µM
HCT-15 colon
  TGI: 51.4 µM
HOP-62 NSCLC
  TGI: 35.4 µM
HOP-92 NSCLC
  TGI: 44 µM
HS 578T breast
  TGI: 63.9 µM
K-562 leukemia
  TGI: > 100 µM
KM12 colon
  TGI: 72.9 µM
LOX IMVI melanoma
  TGI: 37 µM
M14 melanoma
  TGI: 23.2 µM
MALME-3M melanoma
  TGI: 54.7 µM
MCF7 breast
  TGI: 43.8 µM
MDA-MB-231 breast
  TGI: 31 µM
MDA-MB-435
  TGI: 44.8 µM
MDA-N
  TGI: 35.2 µM
MOLT-4 leukemia
  TGI: 46 µM
NCI-H226 lung
  TGI: 46.1 µM
NCI-H23 lung
  TGI: 40.8 µM
NCI-H460 lung
  TGI: 41.6 µM
NCI-H522 lung
  TGI: 62.4 µM
NCI/ADR-RES ovarian
  TGI: 46 µM
OVCAR-3 ovarian
  TGI: 37.9 µM
OVCAR-4 ovarian
  TGI: 48.8 µM
OVCAR-5 ovarian
  TGI: 30.2 µM
OVCAR-8 ovarian
  TGI: 37.3 µM
PC-3 prostate
  TGI: 29.5 µM
RPMI-8226 leukemia
  TGI: > 100 µM
RXF 393 renal
  TGI: 34.1 µM
SF-268 CNS
  TGI: 47.5 µM
SF-295 CNS
  TGI: 39.2 µM
SF-539 CNS
  TGI: 36.3 µM
SK-MEL-2 melanoma
  TGI: 37.9 µM
SK-MEL-28 melanoma
  TGI: 25.9 µM
SK-MEL-5 melanoma
  TGI: 36.2 µM
SK-OV-3 ovarian
  TGI: 34.7 µM
SN12C renal
  TGI: 35 µM
SNB-19 CNS
  TGI: 33.7 µM
SNB-75 CNS
  TGI: 41.1 µM
SR leukemia
  TGI: 46.1 µM
SW-620 colon
  TGI: 32.2 µM
T-47D breast
  TGI: 44.8 µM
TK-10 renal
  TGI: 33 µM
U251 CNS
  TGI: 39.1 µM
UACC-257 melanoma
  TGI: 31.7 µM
UACC-62 melanoma
  TGI: 41.1 µM
UO-31 renal
  TGI: 17.6 µM

## CC(=O)/C(N=Nc1ccc(-n2c(C)nc3ccccc3c2=O)cc1)=C(/C)O
786-0 renal
  TGI: > 100 µM
A498 renal
  TGI: > 100 µM
A549 NSCLC
  TGI: > 100 µM
ACHN renal
  TGI: > 100 µM
BT-549 breast
  TGI: > 100 µM
CAKI-1 renal
  TGI: > 100 µM
CCRF-CEM leukemia
  TGI: > 100 µM
COLO 205 colon
  TGI: > 100 µM
DU-145 prostate
  TGI: > 100 µM
EKVX NSCLC
  TGI: > 100 µM
HCT-116 colon
  TGI: > 100 µM
HCT-15 colon
  TGI: > 100 µM
HL-60(TB) leukemia
  TGI: > 100 µM
HOP-62 NSCLC
  TGI: > 100 µM
HOP-92 NSCLC
  TGI: > 100 µM
HS 578T breast
  TGI: > 100 µM
HT29 colon
  TGI: > 100 µM
IGROV1 ovarian
  TGI: > 100 µM
K-562 leukemia
  TGI: > 100 µM
KM12 colon
  TGI: > 100 µM
LOX IMVI melanoma
  TGI: > 100 µM
M14 melanoma
  TGI: > 100 µM
MCF7 breast
  TGI: > 100 µM
MDA-MB-231 breast
  TGI: > 100 µM
MDA-MB-435
  TGI: > 100 µM
MDA-N
  TGI: > 100 µM
MOLT-4 leukemia
  TGI: > 100 µM
NCI-H226 lung
  TGI: > 100 µM
NCI-H23 lung
  TGI: > 100 µM
NCI-H460 lung
  TGI: > 100 µM
NCI/ADR-RES ovarian
  TGI: > 100 µM
OVCAR-3 ovarian
  TGI: > 100 µM
OVCAR-5 ovarian
  TGI: > 100 µM
OVCAR-8 ovarian
  TGI: > 100 µM
PC-3 prostate
  TGI: > 100 µM
RPMI-8226 leukemia
  TGI: > 100 µM
SF-268 CNS
  TGI: > 100 µM
SF-295 CNS
  TGI: > 100 µM
SF-539 CNS
  TGI: > 100 µM
SK-MEL-2 melanoma
  TGI: > 100 µM
SK-MEL-28 melanoma
  TGI: > 100 µM
SK-MEL-5 melanoma
  TGI: > 100 µM
SK-OV-3 ovarian
  TGI: > 100 µM
SN12C renal
  TGI: > 100 µM
SNB-19 CNS
  TGI: > 100 µM
SNB-75 CNS
  TGI: > 100 µM
SR leukemia
  TGI: > 100 µM
SW-620 colon
  TGI: > 100 µM
T-47D breast
  TGI: > 100 µM
TK-10 renal
  TGI: > 100 µM
U251 CNS
  TGI: > 100 µM
UACC-257 melanoma
  TGI: > 100 µM
UACC-62 melanoma
  TGI: > 100 µM
UO-31 renal
  TGI: > 100 µM

## NCCN1C(=O)c2cc(Cl)c(Cl)cc2C1(O)c1ccc(Cl)cc1 (stereo unspecified)
786-0 renal
  TGI: 2.96 µM
A498 renal
  TGI: 10.2 µM
A549 NSCLC
  TGI: 4.76 µM
ACHN renal
  TGI: 4.75 µM
BT-549 breast
  TGI: 13.4 µM
CAKI-1 renal
  TGI: 7.02 µM
CCRF-CEM leukemia
  TGI: 10.1 µM
COLO 205 colon
  TGI: 3.02 µM
DU-145 prostate
  TGI: 6.81 µM
EKVX NSCLC
  TGI: 6.75 µM
HCT-116 colon
  TGI: 3.09 µM
HCT-15 colon
  TGI: 5.33 µM
HL-60(TB) leukemia
  TGI: 3.44 µM
HOP-62 NSCLC
  TGI: 4.21 µM
HOP-92 NSCLC
  TGI: 12.5 µM
HS 578T breast
  TGI: 8.44 µM
HT29 colon
  TGI: 3.81 µM
IGROV1 ovarian
  TGI: 4.89 µM
K-562 leukemia
  TGI: 4.09 µM
KM12 colon
  TGI: 4.17 µM
LOX IMVI melanoma
  TGI: 3.28 µM
M14 melanoma
  TGI: 3.23 µM
MALME-3M melanoma
  TGI: 3.49 µM
MCF7 breast
  TGI: 3.73 µM
MDA-MB-231 breast
  TGI: 3.75 µM
MDA-MB-435
  TGI: 3.13 µM
MDA-N
  TGI: 3.47 µM
MOLT-4 leukemia
  TGI: 5.28 µM
NCI-H23 lung
  TGI: 6.78 µM
NCI-H460 lung
  TGI: 3.64 µM
NCI/ADR-RES ovarian
  TGI: 7.25 µM
OVCAR-3 ovarian
  TGI: 4.74 µM
OVCAR-4 ovarian
  TGI: 4.24 µM
OVCAR-5 ovarian
  TGI: 12.2 µM
OVCAR-8 ovarian
  TGI: 3.92 µM
PC-3 prostate
  TGI: 19.3 µM
RPMI-8226 leukemia
  TGI: 5.39 µM
RXF 393 renal
  TGI: 3.06 µM
SF-268 CNS
  TGI: 6.65 µM
SF-295 CNS
  TGI: 3.9 µM
SF-539 CNS
  TGI: 3.1 µM
SK-MEL-2 melanoma
  TGI: 3.63 µM
SK-MEL-28 melanoma
  TGI: 3.21 µM
SK-MEL-5 melanoma
  TGI: 2.99 µM
SK-OV-3 ovarian
  TGI: 26.3 µM
SN12C renal
  TGI: 13.4 µM
SNB-19 CNS
  TGI: 7.73 µM
SNB-75 CNS
  TGI: 8.26 µM
SR leukemia
  TGI: 3.96 µM
SW-620 colon
  TGI: 3.7 µM
T-47D breast
  TGI: 4.55 µM
TK-10 renal
  TGI: 3.53 µM
U251 CNS
  TGI: 3.17 µM
UACC-257 melanoma
  TGI: 3.47 µM
UACC-62 melanoma
  TGI: 3.25 µM
UO-31 renal
  TGI: 17.2 µM
